According to the supplement of paper PMC10307832:

Key:
Experiment in all cases: relative viability (nuclei count vs DMSO), 5 days (fraction); higher = more cells survive
Everolimus + Luminespib = compound: CO[C@H]1C[C@@H]2CC[C@@H](C)[C@@](O)(O2)C(=O)C(=O)N2CCCC[C@H]2C(=O)O[C@H]([C@H](C)C[C@@H]2CC[C@@H](OCCO)[C@H](OC)C2)CC(=O)[C@H](C)/C=C(\C)[C@@H](O)[C@@H](OC)C(=O)[C@H](C)C[C@H](C)/C=C/C=C/C=C/1C [Everolimus] + CCNC(=O)c1noc(-c2cc(C(C)C)c(O)cc2O)c1-c1ccc(CN2CCOCC2)cc1 [Luminespib] (partner 0.01 µM)
Outline: (§1)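 Values are medians from duplicate plates. Each reflects relative viability, defined as the nuclei count of treated wells over that of vehicle wells. Lung cancer cell lines in 1536-well plates were pin-tool dosed one day after seeding with one drug alone or with a fixed anchor-drug dose plus five library-drug doses (not always all listed) in √10 steps, then fixed, stained and imaged at 4× after 5 days.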

Everolimus + Decitabine = compound: CO[C@H]1C[C@@H]2CC[C@@H](C)[C@@](O)(O2)C(=O)C(=O)N2CCCC[C@H]2C(=O)O[C@H]([C@H](C)C[C@@H]2CC[C@@H](OCCO)[C@H](OC)C2)CC(=O)[C@H](C)/C=C(\C)[C@@H](O)[C@@H](OC)C(=O)[C@H](C)C[C@H](C)/C=C/C=C/C=C/1C [Everolimus] + Nc1ncn([C@H]2C[C@H](O)[C@@H](CO)O2)c(=O)n1 [Decitabine] (partner 2 µM)
Outline: as §1

Everolimus + Olaparib = compound: CO[C@H]1C[C@@H]2CC[C@@H](C)[C@@](O)(O2)C(=O)C(=O)N2CCCC[C@H]2C(=O)O[C@H]([C@H](C)C[C@@H]2CC[C@@H](OCCO)[C@H](OC)C2)CC(=O)[C@H](C)/C=C(\C)[C@@H](O)[C@@H](OC)C(=O)[C@H](C)C[C@H](C)/C=C/C=C/C=C/1C [Everolimus] + O=C(c1cc(Cc2n[nH]c(=O)c3ccccc23)ccc1F)N1CCN(C(=O)C2CC2)CC1 [Olaparib] (partner 8 µM)
Outline: as §1

Everolimus + Lapatinib = compound: CO[C@H]1C[C@@H]2CC[C@@H](C)[C@@](O)(O2)C(=O)C(=O)N2CCCC[C@H]2C(=O)O[C@H]([C@H](C)C[C@@H]2CC[C@@H](OCCO)[C@H](OC)C2)CC(=O)[C@H](C)/C=C(\C)[C@@H](O)[C@@H](OC)C(=O)[C@H](C)C[C@H](C)/C=C/C=C/C=C/1C [Everolimus] + CS(=O)(=O)CCNCc1ccc(-c2ccc3ncnc(Nc4ccc(OCc5cccc(F)c5)c(Cl)c4)c3c2)o1 [Lapatinib] (partner 2 µM)
Outline: as §1

Cell Line | relative viability (Everolimus + Luminespib; first compound 0.01 µM) | relative viability (Everolimus + Luminespib; first compound 0.03162 µM) | relative viability (Everolimus + Luminespib; first compound 0.1 µM) | relative viability (Everolimus + Luminespib; first compound 0.3162 µM) | relative viability (Everolimus + Luminespib; first compound 1 µM) | relative viability (Everolimus + Decitabine; first compound 0.01 µM) | relative viability (Everolimus + Decitabine; first compound 0.03162 µM) | relative viability (Everolimus + Decitabine; first compound 0.1 µM) | relative viability (Everolimus + Decitabine; first compound 0.3162 µM) | relative viability (Everolimus + Decitabine; first compound 1 µM) | relative viability (Everolimus + Olaparib; first compound 0.01 µM) | relative viability (Everolimus + Olaparib; first compound 0.03162 µM) | relative viability (Everolimus + Olaparib; first compound 0.1 µM) | relative viability (Everolimus + Olaparib; first compound 0.3162 µM) | relative viability (Everolimus + Olaparib; first compound 1 µM) | relative viability (Everolimus + Lapatinib; first compound 0.01 µM) | relative viability (Everolimus + Lapatinib; first compound 0.03162 µM) | relative viability (Everolimus + Lapatinib; first compound 0.1 µM) | relative viability (Everolimus + Lapatinib; first compound 0.3162 µM) | relative viability (Everolimus + Lapatinib; first compound 1 µM)
NCI-H441 | 0.272 | 0.267 | 0.223 | 0.271 | 0.234 | 0.257 | 0.243 | 0.194 | 0.261 | 0.29 | 0.517 | 0.598 | 0.489 | 0.657 | 0.484 | – | – | – | – | –
NCI-H1793 | 0.151 | 0.149 | 0.139 | 0.152 | 0.113 | 0.283 | 0.262 | 0.339 | 0.344 | 0.263 | 0.346 | 0.345 | 0.319 | 0.343 | 0.235 | 0.316 | 0.337 | 0.378 | 0.352 | 0.278
NCI-H23 | 0.211 | 0.2 | 0.21 | 0.232 | 0.218 | 0.264 | 0.283 | 0.257 | 0.259 | 0.254 | 0.261 | 0.219 | 0.267 | 0.221 | 0.22 | 0.736 | 0.685 | 0.491 | 0.695 | 0.693
HARA | 0.748 | 0.768 | – | 0.407 | 0.203 | 0.451 | 0.426 | 0.426 | 0.572 | 0.474 | 0.78 | 0.762 | 0.86 | 0.84 | 0.471 | 0.546 | 0.468 | 0.541 | 0.714 | 0.526
NCI-H1792 | 0.295 | 0.24 | 0.21 | 0.229 | 0.217 | 0.396 | 0.338 | 0.249 | 0.276 | 0.199 | 0.21 | 0.155 | 0.167 | 0.113 | 0.119 | 0.637 | 0.656 | 0.679 | 0.593 | 0.734
NCI-H1703 | – | – | – | – | – | – | – | – | – | – | 0.36 | 0.218 | 0.333 | 0.233 | 0.337 | 0.569 | 0.481 | 0.548 | 0.489 | 0.847
NCI-H1648 | – | – | – | – | – | 0.484 | 0.423 | 0.383 | 0.405 | 0.399 | 0.577 | 0.473 | 0.613 | 0.597 | 0.482 | – | – | – | – | –
CAL-12T | 0.146 | 0.138 | 0.173 | 0.159 | 0.212 | – | – | – | – | – | 0.527 | 0.486 | 0.483 | 0.473 | 0.379 | 0.483 | 0.426 | 0.33 | 0.463 | 0.433
NCI-H727 | 0.47 | 0.372 | – | 0.345 | 0.365 | 0.73 | 0.594 | 0.591 | 0.642 | 0.617 | 0.719 | 0.673 | 0.569 | 0.524 | 0.755 | 0.435 | 0.543 | 0.402 | 0.527 | 0.561
NCI-H2085 | 0.258 | 0.28 | 0.349 | 0.319 | 0.304 | 0.508 | 0.536 | 0.483 | 0.478 | 0.395 | 0.704 | 0.75 | 0.698 | 0.705 | 0.583 | 0.489 | 0.364 | 0.434 | 0.506 | 0.486
NCI-H1395 | 0.581 | 0.522 | 0.532 | 0.449 | 0.537 | 0.59 | 0.6 | 0.563 | 0.574 | 0.6 | 0.405 | 0.423 | 0.377 | 0.401 | 0.379 | 0.886 | 0.755 | 0.585 | 0.614 | 0.869
SW 900 | 0.173 | 0.174 | 0.165 | 0.154 | 0.169 | 0.434 | 0.404 | 0.4 | 0.406 | 0.439 | 0.801 | 0.744 | 0.814 | 0.656 | 0.649 | – | – | – | – | –
NCI-H460 | 0.0198 | 0.0198 | 0.0232 | 0.0224 | 0.0194 | 0.498 | 0.53 | 0.506 | 0.369 | 0.421 | 0.44 | 0.407 | 0.4 | 0.403 | 0.422 | 0.912 | 0.919 | 0.805 | 0.866 | 0.84
A549 | – | – | – | – | – | 0.193 | 0.194 | 0.179 | 0.174 | 0.193 | 0.204 | 0.234 | 0.232 | 0.237 | 0.215 | 0.682 | 0.5 | 0.444 | 0.485 | 0.444
IA-LM | – | – | – | – | – | – | – | – | – | – | 0.759 | 0.613 | 0.603 | 0.741 | 0.665 | 0.718 | 0.395 | 0.377 | 0.272 | 0.432
EKVX | 0.623 | 0.475 | 0.336 | 0.447 | 0.425 | – | 0.245 | 0.226 | 0.226 | 0.371 | – | 0.493 | 0.494 | 0.561 | 0.558 | 0.158 | 0.161 | 0.159 | 0.171 | 0.161
ChaGo-K-1 | 0.455 | 0.396 | 0.54 | 0.432 | 0.399 | 0.5 | 0.478 | 0.461 | 0.419 | 0.458 | 0.424 | 0.492 | 0.466 | 0.401 | 0.494 | – | – | – | – | –
